Counter-ions that a name gives are not always drawn.
Test system: barley (Hordeum vulgare, var. Georgie)
Assay: Antilodging effects on barley
Format: in vivo
Set-up: key to Tiller formation / Stem stiffness: 5 = no increase over controls, 3 = moderate significant increase
Details: for Stem stiffness / Tiller formation: control 5; for Weight Dry: control 5.2; for Weight Fresh: control 49.1; for Height: control 53.1; for Phytotoxicity: three weeks after spraying
Procedure: In this experiment the procedure of Example 7 is repeated excepting that the crop used was barley (Hordeum vulgare, var. Georgie; European lodging prone variety). The plants are treated at the 3-4 leaf stage. Plants are watered prior to treatment and then sprayed to provide the kg/ha rate of test compound desired. After spraying the plants are placed on greenhouse benches and watered and fertilized in accordance with normal greenhouse procedures.
Three weeks after spraying the plants are measured and harvested. All treatments are replicated six times and companions are made against untreated controls.
The following rating system is used:
5=No increase over controls
3=Moderate, significant increase over controls.

Row | SMILES | Stem stiffness (rate 0.25 kg/ha) | Tiller formation (rate 0.25 kg/ha) | Weight Dry (rate 0.25 kg/ha) | Weight Fresh (rate 0.25 kg/ha) | Height (rate 0.25 kg/ha) | Phytotoxicity (rate 0.25 kg/ha) | Stem stiffness (rate 0.5 kg/ha) | Tiller formation (rate 0.5 kg/ha) | Weight Fresh (rate 0.5 kg/ha) | Height (rate 0.5 kg/ha) | Phytotoxicity (rate 0.5 kg/ha) | Stem stiffness (rate 1.0 kg/ha) | Tiller formation (rate 1.0 kg/ha) | Weight Fresh (rate 1.0 kg/ha) | Height (rate 1.0 kg/ha) | Phytotoxicity (rate 1.0 kg/ha) | Weight Dry (rate 0.5 kg/ha) | Weight Dry (rate 1.0 kg/ha)
1 | O=[N+]([O-])N(F)c1c(Br)cccc1Br [2,6-Dibromo-N--fluoro-N--nitroaniline] | 4 | 4 | 6.0 g | 57.8 g | 52.0 cm | 5 (No increase over controls) | 5 (No increase over controls) | 5 (No increase over controls) | 52.6 g | 51.0 cm | 5 (No increase over controls) | 5 (No increase over controls) | 4 | 49.2 g | 45.2 cm | 5 (No increase over controls) | – | –
2 | CCc1cccc(C(C)C)c1N[N+](=O)[O-] [Tallowamine compound with 2-ethyl-6-isopropyl-N--nitroanilin] [Tallowamine compound with 2-ethyl-6-isopropyl-N--nitroaniline] | 4 | 4 | – | 49.2 g | 45.0 cm | 5 (No increase over controls) | 4 | 4 | 47.1 g | 41.7 cm | 5 (No increase over controls) | 4 | 4 | 52.4 g | 45.7 cm | 5 (No increase over controls) | – | –
3 | O=[N+]([O-])Nc1c(Br)cccc1Br [Tallowamine compound with 2,6-dibromo-N--nitroaniline] | 4 | 5 (No increase over controls) | 6.8 g | 62.3 g | 54.7 cm | 5 (No increase over controls) | 4 | 4 | 60.1 g | 48.5 cm | 5 (No increase over controls) | 4 | 4 | 55.9 g | 48.7 cm | 5 (No increase over controls) | 7.5 g | –
4 | N#Cc1ccc(N[N+](=O)[O-])c(Br)c1 [2-Bromo-4-cyano-N--nitroaniline] | 5 (No increase over controls) | 4 | 7.4 g | 62.2 g | 53.0 cm | 5 (No increase over controls) | 5 (No increase over controls) | 4 | 59.2 g | 53.3 cm | 5 (No increase over controls) | 5 (No increase over controls) | 5 (No increase over controls) | 60.9 g | 53.2 cm | 5 (No increase over controls) | 7.0 g | 7.0 g
5 | CCc1cccc(C(C)C)c1N[N+](=O)[O-] [2-Ethyl-6-isopropyl-N--nitroaniline] | 4 | 4 | – | 50.5 g | 47.7 cm | 5 (No increase over controls) | 4 | 3 (Moderate, significant increase over controls.) | 59.3 g | 48.7 cm | 5 (No increase over controls) | 4 | 4 | 56.5 g | 51.0 cm | 5 (No increase over controls) | 5.9 g | 5.4 g
6 | Cc1cc(C)c(N[N+](=O)[O-])c(I)c1 [2-Iodo-4,6-dimethyl-N--nitroaniline] | 5 (No increase over controls) | 5 (No increase over controls) | – | 54.1 g | 52.7 cm | 5 (No increase over controls) | 5 (No increase over controls) | 5 (No increase over controls) | 52.7 g | 52.5 cm | 5 (No increase over controls) | 5 (No increase over controls) | 5 (No increase over controls) | 58.0 g | 53.5 cm | 5 (No increase over controls) | – | 6.2 g
7 | Cn1c(-c2ccccc2)cc(-c2ccccc2)[n+]1C.O=[N+]([O-])[N-]c1ccccc1Br [1,2-Dimethyl-3,5-diphenylpyrazolium salt with 2-Bromo-N--aci-nitroaniline] | 4 | 4 | – | 51.0 g | 52.5 cm | 5 (No increase over controls) | 5 (No increase over controls) | 5 (No increase over controls) | 53.5 g | 50.6 cm | 5 (No increase over controls) | 5 (No increase over controls) | 5 (No increase over controls) | 47.4 g | 50.0 cm | 5 (No increase over controls) | – | –
8 | Brn1c(-c2ccccc2)cc(-c2ccccc2)[n+]1Br.O=[N+]([O-])[N-]c1c(Br)cccc1Br [1,2-Dibromo-3,5-diphenylpyrazolium salt with 2,6-dibromo-N--aci-nitroaniline] | 4 | 5 (No increase over controls) | 6.9 g | 59.2 g | 58.2 cm | 5 (No increase over controls) | 4 | 5 (No increase over controls) | 60.7 g | 53.3 cm | 5 (No increase over controls) | 3 (Moderate, significant increase over controls.) | 3 (Moderate, significant increase over controls.) | 60.4 g | 52.3 cm | 5 (No increase over controls) | 6.7 g | 5.9 g
9 | O=[N+]([O-])Nc1c(Br)cccc1Br [2,6-Dibromo-N--nitroaniline] | 4 | 4 | 6.2 g | 58.3 g | 50.5 cm | 5 (No increase over controls) | 4 | 3 (Moderate, significant increase over controls.) | 67.5 g | 53.0 cm | 5 (No increase over controls) | 4 | 3 (Moderate, significant increase over controls.) | 55.8 g | 48.3 cm | 5 (No increase over controls) | 6.9 g | 5.4 g
10 | O=[N+]([O-])Nc1c(Br)cccc1Br [Sodium salt of 2,6-dibromo-N--nitroaniline] | 4 | 4 | – | 55.6 g | 50.2 cm | 5 (No increase over controls) | 4 | 3 (Moderate, significant increase over controls.) | 57.6 g | 47.2 cm | 5 (No increase over controls) | 3 (Moderate, significant increase over controls.) | 3 (Moderate, significant increase over controls.) | 55.5 g | 47.0 cm | 5 (No increase over controls) | 6.4 g | –
11 | Cn1c(-c2ccccc2)cc(-c2ccccc2)[n+]1C.O=[N+]([O-])[N-]c1cccc(Cl)c1Cl [1,2-Dimethyl-3,5-diphenylpyrazolium salt with 2,3-dichloro-N--aci-nitroaniline] | 5 (No increase over controls) | 5 (No increase over controls) | – | 51.2 g | 56.3 cm | 5 (No increase over controls) | 5 (No increase over controls) | 5 (No increase over controls) | 52.6 g | 54.7 cm | 5 (No increase over controls) | 5 (No increase over controls) | 5 (No increase over controls) | 57.3 g | 55.5 cm | 5 (No increase over controls) | – | 6.0 g
